Measurements: patent US12514797B2, “Cosmetic and dermatological compositions” (Northeastern University, priority 2017, dated 2026)

Experiments:
[1] = UV absorbance in vitro, SPF calculated using the Mansur equation, comparison to known UV-filters; format: physicochemical
Procedure: FIG. 12 provides absorbance curves (see top graph) and corresponding comparator values (see table) of Xa to known UV-filters, avo- and oxy-benzone. […] X−1 represents synthetic Xa; X−2 represents Xa extracted from squid at 0.10 mM. SPF was calculated using the Mansur equation and critical wavelength was determined as the wavelength at which 90% of the absorbance curve resides.
Xa is the simplest and most common ommochrome and is formed (along with the reduced dihydro-xanthommatin and ommatin subclasses) via the condensation of two hydroxykynurenine residues in the kynurenine pathway of tryptophan metabolism. Once synthesized, Xa is stabilized within granules (diameter 530 nm) that are resistant to photodegradation. An added predicted functionality, although largely unexplored in vitro and in vivo, is that Xa behaves as a free-radical scavenger. Together, with the data presented in FIG. 12 showing that Xa absorbs UV radiation ˜2× higher than current chemical filters at the same concentrations, it is expected that Xa and Xa-based materials can function as UV-filters that can not only protect against solar irradiation but can also be used in preventative skin care as free-radical scavengers (while maintaining biocompatibility).
(§1) Given its propensity to form granules in natural systems (FIG. 3, left) and its impressive UV-absorptive properties in vitro (FIG. 12, see Table 2 below), Xa was encapsulated within biodegradable particles designed to improve its durability and use as a topical UV-filter. The complex refractive index (RI) of Xa was experimentally determined as 1.92+0.014i. This uniquely high RI is important, especially when considering the design criteria of the particle based UV-filters. For instance, when assembled into nano- and micro-particles, Xa will scatter more light than it absorbs at diameters >200 nm, and this difference is maximized at sizes >[…] (FIG. 13). Because light scattering is an important feature for heat dissipation and reflection for coatings, it can be preferable to design particles with diameters ranging from 1-10 μm.

[2] = Spectrophotometric pH titration, experimental determination of pKa; format: physicochemical; details: water titrated with 0.05 M NaOH, extrapolated from absorbance intensity at 430 and 360 nm as a function of pH
Procedure: The two observed pKas are indicated by the dashed lines at 5.50 and 8.40.
The purified xanthommatin (˜5 mg) was suspended in water (5.00 mL) and titrated to a starting pH of 2.08. The solution was then titrated with 0.05 M NaOH until the pH reached 10.37. During each point in the titration, the solution pH and absorbance was determined. pH levels were measured using a Fisher Scientific Accumet AP 110 pH meter (Fisher Scientific, Waltham, MA).
The pH-dependent color change of a […] solution of xanthommatin was monitored over a pH range of 1.90-10.30 using spectrophotometry. Three distinct patterns were associated with the increasing pH (see FIG. 8). At pH<3.00, the pigment was pale-yellow with a λmax˜430 nm. […] To determine whether the observed intensity in color was reversible at the lower pH values, the pH of xanthommatin was next cycled between acidic (2.00-3.00) and neutral (pH 6.00-8.00) conditions six times, and the absorbance intensity at 430 nm was followed. […]
If the presence or absence of protons were indeed influencing the resultant visible color, then individual acid dissociation constants (Ka) could be experimentally extrapolated and used to follow compositional changes in the biochrome as a function of pH. To test this, it was determined how absorbance intensities varied as a function of pH at both 430 and 360 nm (see FIG. 9). […]

[3] = pH-dependent stability (MSMS analysis of pigment hydrolysis); format: physicochemical; details: pH values approached and exceeded 10.00, mass addition of water
[4] = Electrochromic device (Xa in PEDOT:PSS) redox-dependent color switch, CIE 1931 chromaticity and transmittance; format: physicochemical; details: darkest yellow (O3) to red (R3) films, 555 nm
Text: Even though its exact mechanism for electron transfer remains unknown, phenoxazone-based materials are believed to undergo a reversible reduction to dihydroxanthommatin, gaining two electrons and two protons during its redox-dependent color change. These principles are used to show how the pigment stabilized in a polymer (PEDOT-PSS) matrix is capable of switching color in response to different applied voltages. When a double potential step from +1.5 V to −1.5 V vs ground was applied to the device, a redox-dependent color switch was observed (FIG. 11). The current required to switch from one colored state to another was plotted as a function of time upon application of a square-wave potential (FIG. 10). […] In each case, the switching time for each step was calculated as the time required to reach 95% of the maximum current.
The spectral tunability of these materials was also investigated by varying the ratio between PEDOT:PSS and pigment (FIG. 11). Different concentrations of xanthommatin (from 0.04 mg/ml to 0.16 mg/ml) were used while the amount of PEDOT:PSS remained constant. The color of each film activated at the different redox states was measured using the International Commission of Illumination (CIE) 1931 xy-chromaticity diagram. […]
Because the human eye is most sensitive at 555 nm, all transmittance values were calculated at this wavelength without any background correction.

[5] = Hydroxyl radical antioxidant capacity (HORAC) activity assay; format: biochemical; details: compared to commercially available antioxidant standard gallic acid
Text: FIG. 14 illustrates the hydroxyl radical antioxidant capacity (HORAC) activity assay activity of Xa. The HORAC assay was used to evaluate the application of Xa as a natural antioxidant. Xa consumes hydroxyl radicals produced by the activation of the fenton reagent preventing the degradation of the fluorescein probe.
Oxygen derived species such as superoxide radical, hydrogen peroxide, singlet oxygen and hydroxyl radical are well known to be cytotoxic and have been implicated in the onset of a wide array of human diseases. These “compounds” are often referred to as reactive oxygen species (ROS). ROS normally exist in all aerobic cells in balance with biochemical antioxidants; however, this critical equilibrium can be disrupted due to excess ROS or antioxidant depletion and can result in oxidative stress. Antioxidants are used in cosmetics, pharmaceuticals, food and on the skin directly minimize the undesirable reactions resulting from oxidation caused by ROS. Commonly used antioxidants typically contain a combination of phenol, benzene and alkene functional groups. These key features work to inhibit the propagation of ROS through resonance stabilization of free radicals. […] The ability of particles and pigments (free and encapsulated) to […] ROS are measured using the colorimetric hydroxyl radical antioxidant capacity (HORAC) assay (FIG. 14). […]

[6] = Complex refractive index determination; format: physicochemical
Text: as §1

- pKa [2]: 5.5
- pigment hydrolysis [3]: pigment hydrolysis occurred
- optical contrast (ΔT %) [4]: 25.4%
- complex refractive index (RI) [6]: 1.92+0.014i
Structure (SMILES): NC(CC(=O)c1cccc2oc3cc(=O)c4[nH]c(C(=O)O)cc(=O)c4c-3nc12)C(=O)O (stereo not shown) [Xa, xanthommatin]
- SPF in vitro ([1]; 0.062 mM): 3
- SPF in vitro ([1]; 0.125 mM): 14
- SPF in vitro ([1]; 0.250 mM): 38
- UV radiation absorption relative to current chemical filters ([1]; same concentrations, FIG. 12 comparators avo- and oxy-benzone): ~2 ×
- HORAC activity [5]: enhanced activity in comparison to commercially available standard gallic acid
- HORAC activity ([5]; listed as Xanthommatin): enhanced activity when compared to commercially available antioxidant gallic acid
